Measured values taken from the NIST ThermoML archive (doi:10.1021/acs.jced.9b00442).

Columns and labels:
[1] = refractive index (Na D-line) (dimensionless); conditions: 100 kPa, Liquid, Standard Abbe refractometry
[2] = 100 kPa, Liquid; for electrical conductivity: Frequency=0.0006 MHz, Alternating current cell with electrodes; for viscosity: Concentric cylinders viscometry; for mass density: Vibrating tube method

CC[N+](C)(C)CCOC.O=S(=O)([N-]S(=O)(=O)C(F)(F)F)C(F)(F)F
Conditions	electrical conductivity [S/m]	mass density [kg/m3]	refractive index	viscosity [mPa·s]
[1], 283.15 K	–	–	1.4164	–
[1], 288.15 K	–	–	1.415	–
[1], 293.15 K	–	–	1.4136	–
[1], 298.15 K	–	–	1.4121	–
[1], 303.15 K	–	–	1.4107	–
[1], 308.15 K	–	–	1.4092	–
[1], 313.15 K	–	–	1.4078	–
[1], 318.15 K	–	–	1.4065	–
[1], 323.15 K	–	–	1.4051	–
[1], 328.15 K	–	–	1.4037	–
[1], 333.15 K	–	–	1.4024	–
[1], 338.15 K	–	–	1.4011	–
[1], 343.15 K	–	–	1.3998	–
[1], 348.15 K	–	–	1.3985	–
[1], 353.15 K	–	–	1.3972	–
[1], 358.15 K	–	–	1.3959	–
[2], 283.15 K	0.141	–	–	–
[2], 288.15 K	0.182	1440.5	–	100.4
[2], 289.15 K	–	1439.5	–	–
[2], 290.15 K	–	1438.6	–	–
[2], 291.15 K	–	1437.6	–	–
[2], 292.15 K	–	1436.7	–	–
[2], 293.15 K	0.23	1435.7	–	78.3
[2], 294.15 K	–	1434.8	–	–
[2], 295.15 K	–	1433.8	–	–
[2], 296.15 K	–	1432.8	–	–
[2], 297.15 K	–	1431.9	–	–
[2], 298.15 K	0.285	1431	–	61.5
[2], 299.16 K	–	1430	–	–
[2], 300.16 K	–	1429.1	–	–
[2], 301.15 K	–	1428.1	–	–
[2], 302.15 K	–	1427.2	–	–
[2], 303.15 K	0.347	1426.2	–	49.5
[2], 304.15 K	–	1425.3	–	–
[2], 305.15 K	–	1424.4	–	–
[2], 306.15 K	–	1423.4	–	–
[2], 307.15 K	–	1422.5	–	–
[2], 308.15 K	0.415	1421.6	–	40.5
[2], 309.15 K	–	1420.6	–	–
[2], 310.15 K	–	1419.7	–	–
[2], 311.15 K	–	1418.8	–	–
[2], 312.15 K	–	1417.8	–	–
[2], 313.15 K	0.489	1416.9	–	33.9
[2], 314.15 K	–	1416	–	–
[2], 315.15 K	–	1415.1	–	–
[2], 316.15 K	–	1414.1	–	–
[2], 317.15 K	–	1413.2	–	–
[2], 318.15 K	0.57	1412.3	–	28.2
[2], 319.15 K	–	1411.4	–	–
[2], 320.15 K	–	1410.4	–	–
[2], 321.15 K	–	1409.5	–	–
[2], 322.15 K	–	1408.6	–	–
[2], 323.15 K	0.659	1407.7	–	24
[2], 324.15 K	–	1406.8	–	–
[2], 325.15 K	–	1405.9	–	–
[2], 326.15 K	–	1404.9	–	–
[2], 327.15 K	–	1404	–	–
[2], 328.15 K	–	1403.1	–	20.6
[2], 329.15 K	–	1402.2	–	–
[2], 330.15 K	–	1401.3	–	–
[2], 331.15 K	–	1400.4	–	–
[2], 332.15 K	–	1399.4	–	–
[2], 333.15 K	–	1398.5	–	18
[2], 334.15 K	–	1397.6	–	–
[2], 335.16 K	–	1396.7	–	–
[2], 336.15 K	–	1395.8	–	–
[2], 337.15 K	–	1394.9	–	–
[2], 338.15 K	–	1394	–	15.6
[2], 339.15 K	–	1393.1	–	–
[2], 340.15 K	–	1392.2	–	–
[2], 341.15 K	–	1391.3	–	–
[2], 342.15 K	–	1390.4	–	–
[2], 343.15 K	–	1389.5	–	13.7
[2], 344.15 K	–	1388.6	–	–
[2], 345.15 K	–	1387.7	–	–
[2], 346.15 K	–	1386.7	–	–
[2], 347.15 K	–	1385.8	–	–
[2], 348.15 K	–	1384.9	–	12.2
[2], 349.15 K	–	1384	–	–
[2], 350.15 K	–	1383.1	–	–
[2], 351.15 K	–	1382.2	–	–
[2], 352.15 K	–	1381.3	–	–
[2], 353.15 K	–	1380.4	–	11
[2], 354.15 K	–	1379.5	–	–
[2], 355.15 K	–	1378.6	–	–
[2], 356.15 K	–	1377.7	–	–
[2], 357.15 K	–	1376.9	–	–
[2], 358.15 K	–	1376	–	9.7
[2], 359.15 K	–	1375.1	–	–
[2], 360.15 K	–	1374.2	–	–
[2], 361.15 K	–	1373.3	–	–
[2], 362.16 K	–	1372.4	–	–
[2], 363.15 K	–	1371.5	–	8.8

CC[N+](C)(CCO)CCO.O=S(=O)([N-]S(=O)(=O)C(F)(F)F)C(F)(F)F
[2]
Conditions	electrical conductivity [S/m]	mass density [kg/m3]	viscosity [mPa·s]
283.15 K	0.027	–	–
288.15 K	0.04	1524.5	536.2
289.15 K	–	1523.6	–
290.15 K	–	1522.7	–
291.15 K	–	1521.7	–
292.15 K	–	1520.8	–
293.15 K	0.056	1519.9	–
294.15 K	–	1519	–
295.15 K	–	1518	–
296.15 K	–	1517.1	–
297.15 K	–	1516.2	–
298.15 K	0.076	1515.3	268.3
299.16 K	–	1514.4	–
300.16 K	–	1513.4	–
301.15 K	–	1512.5	–
302.15 K	–	1511.6	–
303.15 K	0.101	1510.7	197.7
304.15 K	–	1509.8	–
305.15 K	–	1508.9	–
306.15 K	–	1508	–
307.15 K	–	1507.1	–
308.15 K	0.13	1506.2	149
309.15 K	–	1505.3	–
310.15 K	–	1504.4	–
311.15 K	–	1503.5	–
312.15 K	–	1502.6	–
313.15 K	0.165	1501.7	112.6
314.15 K	–	1500.8	–
315.15 K	–	1499.9	–
316.15 K	–	1499	–
317.15 K	–	1498.1	–
318.15 K	0.206	1497.2	89.9
319.15 K	–	1496.3	–
320.15 K	–	1495.4	–
321.15 K	–	1494.6	–
322.15 K	–	1493.7	–
323.15 K	0.253	1492.8	71.7
324.15 K	–	1491.9	–
325.15 K	–	1491	–
326.15 K	–	1490.2	–
327.15 K	–	1489.3	–
328.15 K	–	1488.4	58.1
329.15 K	–	1487.5	–
330.15 K	–	1486.7	–
331.15 K	–	1485.8	–
332.15 K	–	1484.9	–
333.15 K	–	1484.1	47.3
334.15 K	–	1483.2	–
335.16 K	–	1482.3	–
336.15 K	–	1481.5	–
337.15 K	–	1480.6	–
338.15 K	–	1479.7	39.7
339.15 K	–	1478.9	–
340.15 K	–	1478	–
341.15 K	–	1477.1	–
342.15 K	–	1476.3	–
343.15 K	–	1475.4	33.4
344.15 K	–	1474.6	–
345.15 K	–	1473.7	–
346.15 K	–	1472.8	–
347.15 K	–	1472	–
348.15 K	–	1471.1	28.4
349.15 K	–	1470.3	–
350.15 K	–	1469.4	–
351.15 K	–	1468.6	–
352.15 K	–	1467.7	–
353.15 K	–	1466.8	24.3
354.15 K	–	1466	–
355.15 K	–	1465.1	–
356.15 K	–	1464.3	–
357.15 K	–	1463.5	–
358.15 K	–	1462.6	21.1
359.15 K	–	1461.8	–
360.15 K	–	1460.9	–
361.15 K	–	1460.1	–
362.16 K	–	1459.2	–
363.15 K	–	1458.4	18.4
